Here are results for 26 compounds from patent US12636275B2, “Pharmaceutical use of ketoamide-based compound” (Shanghai Institute of Materia Medica, Chinese Academy of …, priority 2020, dated 2026).

In the first test the target is T1, 2019-nCoV 3CL protease (Severe acute respiratory syndrome coronavirus 2, UniProt P0DTD1).
T1 construct: against 3CL protease of 2019 novel coronavirus (2019-nCoV 3CL^pro)
The test is described as follows: Inhibitory activity against 3CL protease of 2019 novel coronavirus (FRET). The format is biochemical. The note with it: FRET, 37° C., substrate 20 μM. As for the experimental part:
To determine the inhibitory activity of the compound against 3CL protease of 2019 novel coronavirus (2019-nCoV 3CL^pro): the enzyme level inhibitory activity of inhibitors against 3CL protease was determined by fluorescence resonance energy transfer (FRET) technology. In a 96-well plate, 27.5 μL of buffer (20 mM Tris, 100 mM NaCl, 1 mM EDTA, pH 7.4) was added to each well, 2.5 μL compounds ([…], respectively) and 5 μL […] (final concentration was 3 μM) were added at the same time. Incubated at 37° C. for 15 min. Then 15 μL fluorescent substrate diluted with buffer (final concentration was 20 μM) was added. The fluorescence parameters were determined by Ge n5 fluorescence spectrophotometer. The excitation wavelength and emission wavelength were 340 nm and 490 nm respectively, kept at 37° C., and the data were read after 10 min. A negative control was used, in which no compound was added to the control, and the rest was the same.
For the compound `CC(C)NC(=O)CC[C@H](NC(=O)[C@H](Cc1ccccc1)NC(=O)c1cnc2ccccc2n1)C(=O)C(=O)NCc1ccccc1` [Example A238], the IC50 (usually the concentration needed to halve the response being measured) was 4.8 µM.

Consider `O=C(NC1CCCCC1)C(=O)[C@H](C[C@@H]1CCCNC1=O)NC(=O)[C@H](CC1CCCCC1)NC(=O)c1cc2cccc(Br)c2o1` [Example A257, N—((S)-1-(((S)-4-(cyclohexylamino)-3,4-dione-1-((S)-2-oxopiperidin-3-yl)but-2-yl)amino)-3-cyclohexyl-1-oxopropan-2-yl)-6-bromo-benzofuran-2-carboxamide], for which it took 5.2 µM to reach half-maximal inhibition (IC50).

In the case of `COc1cc(OC)c2cc(C(=O)N[C@@H](Cc3ccccc3)C(=O)N[C@@H](C[C@@H]3CCNC3=O)C(=O)C(=O)NC(C)(C)C)[nH]c2c1` [Example A221, N—((S)-1-(((S)-4-(tert-butylamino)-3,4-dione-1-((S)-2-oxopyrrolidin-3-yl)but-2-yl)amino)-1-oxo-3-phenylpropan-2-yl)-4,6-dimethoxy-1H-indole-2-carboxamide], the IC50 is 5.8 µM.

In turn, `CC(C)(C)NC(=O)C(=O)[C@H](C[C@@H]1CCNC1=O)NC(=O)[C@H](Cc1ccccc1)NC(=O)c1cc2ccccc2o1` [Example A291, N—((S)-1-(((S)-4-(tert-butylamino)-3,4-dione-1-((S)-2-oxopyrrolidin-3-yl)but-2-yl)amino)-3-phenyl-1-oxopropan-2-yl)-benzofuran-2-carboxamide] had a concentration for half-maximal inhibition (IC50) of 15.2 µM.

With `CC(C)NC(=O)CC[C@H](NC(=O)[C@H](Cc1ccccc1)NC(=O)c1cc2ccccc2[nH]1)C(=O)C(=O)NCC1CCCCC1` [Example A234], the concentration for half-maximal inhibition (IC50) was determined as 10.3 µM.

For `CCOc1ccc2oc(C(=O)N[C@@H](CC3CCCCC3)C(=O)N[C@@H](C[C@@H]3CCCNC3=O)C(=O)C(=O)NCc3ccccc3)cc2c1` [Example A259, N—((S)-1-(((S)-4-(benzylamino)-3,4-dione-1-((S)-2-oxopiperidin-3-yl)but-2-yl)amino)-3-cyclohexyl-1-oxopropan-2-yl)-5-ethoxyl-benzofuran-2-carboxamide], 9.5 µM corresponded to half-maximal inhibition (IC50).

On to `O=C(NCc1ccccc1)C(=O)[C@H](C[C@@H]1CCCNC1=O)NC(=O)[C@H](CC1CCCCC1)NC(=O)c1cc2c(F)c(F)ccc2[nH]1` [Example A269, N—((S)-1-(((S)-4-(benzylamino)-3,4-dione-1-((S)-2-oxopiperidin-3-yl)but-2-yl)amino)-3-cyclohexyl-1-oxopropan-2-yl)-4,5-indole-2-carboxamide], for which the IC50 was found to be 8.8 µM.

`O=C(NCc1ccc(-c2ccccc2)cc1)C(=O)[C@H](C[C@@H]1CCCNC1=O)NC(=O)[C@H](CC1CCCCC1)NC(=O)c1cc2ccccc2o1` [Example A275]: inhibition was half-maximal at 5.8 µM (IC50).

The compound `O=C(NC1CCCCC1)C(=O)[C@H](C[C@@H]1CCCNC1=O)NC(=O)[C@H](Cc1ccccc1)NC(=O)c1cc2ccccc2o1` [Example A59] came in with an IC50 of 23.5 µM.

As to `O=C(NC1CCCCC1)C(=O)[C@H](C[C@@H]1CCNC1=O)NC(=O)[C@H](Cc1ccccc1)NC(=O)c1cc2ccccc2o1` [Example A56], the half-maximal inhibitory concentration (IC50) was 24.1 µM.

The compound `O=C(NCc1ccccc1)C(=O)[C@H](C[C@@H]1CCNC1=O)NC(=O)[C@H](Cc1cccc(F)c1)NC(=O)c1ccc2ccccc2n1` [Example A305, N—((S)-1-(((S)-4-(benzylamino)-3,4-dione-1-((S)-2-oxopyrrolidin-3-yl)but-2-yl)amino)-3-(3-fluorophenyl)-1-oxopropan-2-yl)-quinoline-2-carboxamide] came in with a half-inhibitory concentration (IC50) of 8.5 µM.

For the compound `O=C(NCc1ccccc1)C(=O)[C@H](C[C@@H]1CCNC1=O)NC(=O)[C@H](Cc1ccc(F)cc1)NC(=O)c1ccc2ccccc2n1` [Example A306, N—((S)-1-(((S)-4-(benzylamino)-3,4-dione-1-((S)-2-oxopyrrolidin-3-yl)but-2-yl)amino)-3-(4-fluorophenyl)-1-oxopropan-2-yl)-quinoline-2-carboxamide], it took 6.7 µM to reach half-maximal inhibition (IC50).

For `O=C(NCc1ccccc1)C(=O)[C@H](C[C@@H]1CCNC1=O)NC(=O)[C@H](Cc1ccccc1)NC(=O)c1cn2cc(Br)ccc2n1` [Example A156], inhibition was half-maximal at 4.7 µM (IC50).

In the case of `O=C(NCc1cc(F)cc(F)c1)C(=O)[C@H](C[C@@H]1CCCNC1=O)NC(=O)[C@H](CC1CCCCC1)NC(=O)c1cc2ccccc2o1` [Example A270, N—((S)-1-(((S)-4-(3,5-difluorobenzylamino)-3,4-dione-1-((S)-2-oxopiperidin-3-yl)but-2-yl)amino)-3-cyclohexyl-1-oxopropan-2-yl)-benzofuran-2-carboxamide], the IC50 came to 7.6 µM.

`Cc1ccc(CN(C)C(=O)C(=O)[C@H](C[C@@H]2CCCNC2=O)NC(=O)[C@H](CC2CCCCC2)NC(=O)c2cc3ccccc3o2)cc1` [Example A272, N—((S)-1-(((S)-4-(4-methylbenzylmethylamino)-3,4-dione-1-((S)-2-oxopiperidin-3-yl)but-2-yl)amino)-3-cyclohexyl-1-oxopropan-2-yl)-benzofuran-2-carboxamide] had a 50% inhibitory concentration (IC50) of 4.8 µM.

Consider `C[C@@H](NC(=O)C(=O)[C@H](C[C@@H]1CCNC1=O)NC(=O)[C@H](CC1CCCCC1)NC(=O)c1ccc2ccccc2n1)c1ccccc1` [Example A293], for which the IC50 was found to be 26.4 µM.

Compound `O=C(CC[C@H](NC(=O)[C@H](Cc1ccccc1)NC(=O)c1cnc2ccccc2n1)C(=O)C(=O)NCc1ccccc1)NC1CCCCC1` [Example A239, N—((S)-1-(((S)-4-(benzyl)-3,4-dione-1-(cyclohexylamino)-2-yl)amino)-3-(phenyl)-1-oxopropan-2-yl)-quinoxaline-2-carboxamide] yielded an IC50 of 3.8 µM.

For the compound `Cn1c(C(=O)N[C@@H](CC2CCCCC2)C(=O)N[C@@H](C[C@@H]2CCCNC2=O)C(=O)C(=O)NC(C)(C)C)cc2ccccc21` [Example A28, N—((S)-1-(((S)-4-(tert-butylamino)-3,4-dione-1-((S)-2-oxopiperidin-3-yl)but-2-yl)amino)-3-cyclohexyl-1-oxopropan-2-yl)-1-methyl-1H-indole-2-carboxamide], the IC50 worked out at 15.2 µM.

Consider `CC(C)NC(=O)CC[C@H](NC(=O)[C@H](CC1CCCCC1)NC(=O)c1cnc2ccccc2n1)C(=O)C(=O)NCc1ccccc1` [Example A236, N—((S)-1-(((S)-4-(benzyl)-3,4-dione-1-(isopropylamino)-2-yl)amino)-3-(cyclohexyl)-1-oxopropan-2-yl)-quinoxaline-2-carboxamide], for which the half-inhibitory concentration (IC50) is 4.5 µM.

In the case of `O=C(NCc1ccccc1)C(=O)[C@H](C[C@@H]1CCNC1=O)NC(=O)[C@H](CC1CCCCC1)NC(=O)c1cc2ccccc2s1` [Example A17, N—((S)-1-(((S)-4-(benzylamino)-3,4-dione-1-((S)-2-oxopyrrolidin-3-yl)but-2-yl)amino)-3-cyclohexyl-1-oxopropan-2-yl)-benzothiophene-2-carboxamide], the IC50 turned out to be 12.5 µM.

For the compound `CC(C)C[C@H](NC(=O)c1cc2ccccc2[nH]1)C(=O)N[C@@H](C[C@@H]1CCNC1=O)C(=O)C(=O)NCc1ccccc1` [Example A90, N—((S)-1-(((S)-4-(benzylamino)-3,4-dione-1-((S)-2-oxopyrrolidin-3-yl)but-2-yl)amino)-4-methyl-1-oxopentan-2-yl)-1H-indole-2-carboxamide], inhibition was half-maximal at 25.2 µM (IC50).

`CC(C)C[C@H](NC(=O)c1cc2c(Cl)cc(Cl)cc2[nH]1)C(=O)N[C@@H](C[C@@H]1CCNC1=O)C(=O)C(=O)NC(C)(C)C` [Example A115] displayed a half-maximal inhibitory concentration (IC50) of 6.5 µM.

Regarding `O=C(NCc1ccccc1)C(=O)[C@H](C[C@@H]1CCNC1=O)NC(=O)[C@H](CC1CCCCC1)NC(=O)c1ccc2ccccc2n1` [Example A42, N—((S)-1-(((S)-4-(benzylamino)-3,4-dione-1-((S)-2-oxopyrrolidin-3-yl)but-2-yl)amino)-3-cyclohexyl-1-oxopropan-2-yl)-quinoline-2-carboxamide], the IC50 worked out at 3 µM.

`O=C(NCc1ccccc1)C(=O)[C@H](C[C@@H]1CCCNC1=O)NC(=O)[C@H](CC1CCCCC1)NC(=O)c1cccnn1` [Example A268, N—((S)-1-(((S)-4-(benzylamino)-3,4-dione-1-((S)-2-oxopiperidin-3-yl)but-2-yl)amino)-3-cyclohexyl-1-oxopropan-2-yl)-pyridazine-2-carboxamide] yielded an IC50 of 5.6 µM.

On to `CC(C)(C)NC(=O)C(=O)[C@H](C[C@@H]1CCCNC1=O)NC(=O)[C@H](CC1CCCCC1)NC(=O)c1cc2ccccc2[nH]1` [Example A6, N—((S)-1-(((S)-4-(tert-butylamino)-3,4-dione-1-((S)-2-oxopiperidin-3-yl)but-2-yl)amino)-3-cyclohexyl-1-oxopropan-2-yl)-1H-indole-2-carboxamide], for which the half-inhibitory concentration (IC50) is 25.3 µM.

As for `Cn1c(C(=O)N[C@@H](CC2CCCCC2)C(=O)N[C@@H](C[C@@H]2CCCNC2=O)C(=O)C(=O)NC2CCCCC2)cc2ccccc21` [Example A29, N—((S)-3-cyclohexyl-1-(((S)-4-(cyclohexylamino)-3,4-dione-1-((S)-2-oxopiperidin-3-yl)but-2-yl)amino)-3-cyclohexyl-1-oxopropan-2-yl)-1-methyl-1H-indole-2-carboxamide], the IC50 came out at 9.8 µM.

Another test deals with 2019 novel coronavirus (2019-nCov). The experiment in a line: Inhibitory activity on replication of 2019 novel coronavirus (cytopathic effect, MTS, RD cells). Format: cell-based. The note with it: CQ as positive control, different concentration gradients. (In general: Cytopathic effects are the visible damage that an infection or toxin causes in cultured cells.)
On to `O=C(NCc1ccccc1)C(=O)[C@H](C[C@@H]1CCNC1=O)NC(=O)[C@H](CC1CCCCC1)NC(=O)c1ccc2ccccc2n1` [Example A42, N—((S)-1-(((S)-4-(benzylamino)-3,4-dione-1-((S)-2-oxopyrrolidin-3-yl)but-2-yl)amino)-3-cyclohexyl-1-oxopropan-2-yl)-quinoline-2-carboxamide], for which the “virus inhibitory activity (in words)” value is listed as “excellent virus inhibitory activity”.

Still in this test, the particulars now being: CQ as positive control, different concentration gradients; listed as 4001.
Turning to `O=C(NCc1ccccc1)C(=O)[C@H](C[C@@H]1CCNC1=O)NC(=O)[C@H](CC1CCCCC1)NC(=O)c1ccc2ccccc2n1` [Example A42, N—((S)-1-(((S)-4-(benzylamino)-3,4-dione-1-((S)-2-oxopyrrolidin-3-yl)but-2-yl)amino)-3-cyclohexyl-1-oxopropan-2-yl)-quinoline-2-carboxamide], the “virus inhibitory activity (in words)” value is “better than that of positive control CQ”.

Still in this test, the particulars now being: Severe acute respiratory syndrome coronavirus 2, RD, read-out: EC50, inhibition of 2019-nCoV virus replication.
On to `O=C(NCc1ccccc1)C(=O)[C@H](C[C@@H]1CCNC1=O)NC(=O)[C@H](CC1CCCCC1)NC(=O)c1ccc2ccccc2n1` [Example A42, N—((S)-1-(((S)-4-(benzylamino)-3,4-dione-1-((S)-2-oxopyrrolidin-3-yl)but-2-yl)amino)-3-cyclohexyl-1-oxopropan-2-yl)-quinoline-2-carboxamide], for which the concentration for a half-maximal effect (EC50) (usually the concentration at which the effect is half-maximal) amounted to 0.581 µM.
